Results published in the NIST ThermoML archive (doi:10.1021/je400423u).

Assay: xn = mol fraction of the nth substance listed
Settings: 101 kPa, Liquid; for viscosity: Falling or rolling sphere viscometry; for mass density: Vibrating tube method

CC(C)CO [2-methyl-1-propanol] + CC(C)(C)O
Settings | mass density [kg/m3] | viscosity [mPa·s]
308.15 K, x1 = 0.1038 | 773.016 | 2.723
308.15 K, x1 = 0.2004 | 775.321 | 2.802
308.15 K, x1 = 0.3131 | 777.898 | 2.84
308.15 K, x1 = 0.3971 | 779.742 | 2.837
308.15 K, x1 = 0.4999 | 781.894 | 2.812
308.15 K, x1 = 0.6002 | 783.901 | 2.773
308.15 K, x1 = 0.6999 | 785.765 | 2.723
308.15 K, x1 = 0.7993 | 787.468 | 2.667
308.15 K, x1 = 0.8941 | 788.855 | 2.607
308.15 K, x1 = 1 | 790.12 | 2.382
313.15 K, x1 = 0.1038 | 767.906 | 2.19
313.15 K, x1 = 0.2004 | 770.357 | 2.263
313.15 K, x1 = 0.3131 | 773.062 | 2.312
313.15 K, x1 = 0.3971 | 774.993 | 2.327
313.15 K, x1 = 0.4999 | 777.281 | 2.329
313.15 K, x1 = 0.6002 | 779.435 | 2.317
313.15 K, x1 = 0.6999 | 781.451 | 2.294
313.15 K, x1 = 0.7993 | 783.274 | 2.264
313.15 K, x1 = 0.8941 | 784.79 | 2.229
313.15 K, x1 = 1 | 786.12 | 2.116
318.15 K, x1 = 0.1038 | 762.689 | 1.786
318.15 K, x1 = 0.2004 | 765.271 | 1.852
318.15 K, x1 = 0.3131 | 768.112 | 1.904
318.15 K, x1 = 0.3971 | 770.15 | 1.93
318.15 K, x1 = 0.4999 | 772.578 | 1.949
318.15 K, x1 = 0.6002 | 774.881 | 1.955
318.15 K, x1 = 0.6999 | 777.066 | 1.954
318.15 K, x1 = 0.7993 | 779.045 | 1.94
318.15 K, x1 = 0.8941 | 780.694 | 1.919
318.15 K, x1 = 1 | 782.06 | 1.861
323.15 K, x1 = 0.1038 | 757.428 | 1.479
323.15 K, x1 = 0.2004 | 760.154 | 1.536
323.15 K, x1 = 0.3131 | 763.135 | 1.59
323.15 K, x1 = 0.3971 | 765.278 | 1.619
323.15 K, x1 = 0.4999 | 767.832 | 1.643
323.15 K, x1 = 0.6002 | 770.282 | 1.658
323.15 K, x1 = 0.6999 | 772.615 | 1.664
323.15 K, x1 = 0.7993 | 774.761 | 1.662
323.15 K, x1 = 0.8941 | 776.498 | 1.655
323.15 K, x1 = 1 | 777.93 | 1.602
328.15 K, x1 = 0.1038 | 752.049 | 1.243
328.15 K, x1 = 0.2004 | 754.907 | 1.293
328.15 K, x1 = 0.3131 | 758.027 | 1.342
328.15 K, x1 = 0.3971 | 760.272 | 1.372
328.15 K, x1 = 0.4999 | 762.978 | 1.4
328.15 K, x1 = 0.6002 | 765.582 | 1.42
328.15 K, x1 = 0.6999 | 768.076 | 1.433
328.15 K, x1 = 0.7993 | 770.382 | 1.438
328.15 K, x1 = 0.8941 | 772.239 | 1.439
328.15 K, x1 = 1 | 773.73 | –
333.15 K, x1 = 0.1038 | 746.582 | 1.057
333.15 K, x1 = 0.2004 | 749.576 | 1.099
333.15 K, x1 = 0.3131 | 752.825 | 1.145
333.15 K, x1 = 0.3971 | 755.183 | 1.173
333.15 K, x1 = 0.4999 | 758.038 | 1.202
333.15 K, x1 = 0.6002 | 760.796 | 1.224
333.15 K, x1 = 0.6999 | 763.457 | 1.241
333.15 K, x1 = 0.7993 | 765.918 | 1.251
333.15 K, x1 = 0.8941 | 767.911 | 1.257
333.15 K, x1 = 1 | 769.44 | –
338.15 K, x1 = 0.1038 | 741.045 | 0.9089
338.15 K, x1 = 0.2004 | 744.179 | 0.9461
338.15 K, x1 = 0.3131 | 747.58 | 0.9857
338.15 K, x1 = 0.3971 | 750.026 | 1.013
338.15 K, x1 = 0.4999 | 753.002 | 1.042
338.15 K, x1 = 0.6002 | 755.897 | 1.064
338.15 K, x1 = 0.6999 | 758.701 | 1.081
338.15 K, x1 = 0.7993 | 761.298 | 1.094
338.15 K, x1 = 0.8941 | 763.412 | 1.105
338.15 K, x1 = 1 | 765.07 | –
343.15 K, x1 = 0.1038 | 735.409 | 0.7889
343.15 K, x1 = 0.2004 | 738.697 | 0.8213
343.15 K, x1 = 0.3131 | 742.239 | 0.8569
343.15 K, x1 = 0.3971 | 744.793 | 0.8812
343.15 K, x1 = 0.4999 | 747.895 | 0.9085
343.15 K, x1 = 0.6002 | 750.924 | 0.9302
343.15 K, x1 = 0.6999 | 753.891 | 0.9494
343.15 K, x1 = 0.7993 | 756.647 | 0.9642
343.15 K, x1 = 0.8941 | 758.895 | 0.9753
343.15 K, x1 = 1 | 760.61 | –
